Results on 25 compounds are retold here after ChEMBL document CHEMBL4811247, “Small molecule and macrocyclic pyrazole derived inhibitors of myeloperoxidase (MPO)” (Bioorg Med Chem Lett, 2021).

Bounds are passed on as bounds.

The target in data set [1] is T1, Myeloperoxidase (Homo sapiens, UniProt P05164).
T1 sequence (P05164 whole entry): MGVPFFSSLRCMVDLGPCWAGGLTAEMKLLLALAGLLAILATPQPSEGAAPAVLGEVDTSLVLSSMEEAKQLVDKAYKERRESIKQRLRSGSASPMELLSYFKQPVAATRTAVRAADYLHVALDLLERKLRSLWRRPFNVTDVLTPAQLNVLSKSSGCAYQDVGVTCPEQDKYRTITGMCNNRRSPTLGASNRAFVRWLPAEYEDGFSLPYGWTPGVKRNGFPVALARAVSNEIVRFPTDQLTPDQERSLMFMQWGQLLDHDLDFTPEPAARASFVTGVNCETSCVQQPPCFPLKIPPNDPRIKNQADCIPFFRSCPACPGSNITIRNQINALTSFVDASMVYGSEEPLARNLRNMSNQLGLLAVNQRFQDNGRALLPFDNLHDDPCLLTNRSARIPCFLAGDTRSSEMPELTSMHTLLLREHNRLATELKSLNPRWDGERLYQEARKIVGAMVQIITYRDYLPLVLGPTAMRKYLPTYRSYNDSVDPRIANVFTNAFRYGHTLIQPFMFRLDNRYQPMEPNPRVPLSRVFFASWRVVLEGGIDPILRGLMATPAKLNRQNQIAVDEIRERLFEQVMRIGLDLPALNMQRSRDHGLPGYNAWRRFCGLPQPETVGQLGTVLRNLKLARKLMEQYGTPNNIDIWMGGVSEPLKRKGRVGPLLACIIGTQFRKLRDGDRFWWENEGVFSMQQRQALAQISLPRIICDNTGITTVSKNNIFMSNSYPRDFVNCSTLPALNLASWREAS
Description: Inhibition of MPO (unknown origin) chlorination activity incubated for 10 mins followed by NaCl addition by aminophenyl fluorescein assay

Data set [2] addresses T2, Thyroid peroxidase (Homo sapiens, UniProt P07202).
T2 sequence (P07202 whole entry): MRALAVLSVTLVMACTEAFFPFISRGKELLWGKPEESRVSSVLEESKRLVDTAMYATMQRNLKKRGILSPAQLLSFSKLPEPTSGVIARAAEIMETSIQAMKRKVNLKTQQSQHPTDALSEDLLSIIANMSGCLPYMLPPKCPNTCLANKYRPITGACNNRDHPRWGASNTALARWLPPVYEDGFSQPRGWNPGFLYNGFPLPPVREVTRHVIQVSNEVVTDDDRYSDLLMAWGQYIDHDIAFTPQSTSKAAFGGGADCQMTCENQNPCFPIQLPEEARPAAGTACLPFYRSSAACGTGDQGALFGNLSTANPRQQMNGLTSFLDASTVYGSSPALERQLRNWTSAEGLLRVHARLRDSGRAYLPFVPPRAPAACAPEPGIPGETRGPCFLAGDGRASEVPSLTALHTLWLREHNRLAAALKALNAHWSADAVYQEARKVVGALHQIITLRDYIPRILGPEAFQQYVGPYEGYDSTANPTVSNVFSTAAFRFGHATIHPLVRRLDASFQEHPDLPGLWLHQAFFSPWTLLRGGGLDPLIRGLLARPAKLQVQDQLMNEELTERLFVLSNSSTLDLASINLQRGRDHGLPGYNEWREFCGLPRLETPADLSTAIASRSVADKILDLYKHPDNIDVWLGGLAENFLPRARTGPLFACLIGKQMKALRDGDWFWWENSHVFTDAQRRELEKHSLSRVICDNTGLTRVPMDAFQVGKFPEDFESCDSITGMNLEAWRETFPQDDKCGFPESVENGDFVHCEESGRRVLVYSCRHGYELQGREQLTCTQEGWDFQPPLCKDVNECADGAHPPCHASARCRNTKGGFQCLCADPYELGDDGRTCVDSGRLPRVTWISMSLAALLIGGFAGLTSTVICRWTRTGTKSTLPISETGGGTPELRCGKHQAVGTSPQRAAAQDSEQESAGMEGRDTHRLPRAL
As to the kind of experiment: Inhibition of C-terminal hexaHis-tagged TPO (unknown origin) expressed in Trichoplusia ni insect cells using 3-iodo tyrosine as substrate preincubated for 10 mins followed by substrate and H2O2 addition and further incubated for 15 mins.

For data set [3], the target named is T1, Myeloperoxidase. The data set is described as follows: Inhibition of PMA-induced MPO in human Neutrophil incubated for 3 mins by luminometry. It counts as tissue-based.
The nature of data set [4]: Protein binding in human plasma. It counts as ADME, cell-free. To be noted: read-out: PPB (converted).
Data set [5] concerns the target Cytochrome P450 3A4 (Homo sapiens, UniProt P08684). As to the kind of experiment: Time dependent inhibition of CYP3A4 (unknown origin) measured at 30 mins. Format: ADME.
Data set [6] can be described thus: Permeability of the compound by PAMPA method. Format: ADME. Background: In PAMPA a lipid-coated filter parts donor from acceptor wells.
The nature of data set [7]: Clearance in mouse at 1 mg/kg, iv. It counts as ADME, organism-based. To be noted: in vivo.
A short description of data set [8]: Half life in human liver microsomes. It counts as ADME, Microsome. For orientation: Microsomes from liver hold many membrane-bound enzymes, among them those of drug oxidation.
Data set [9] is described as follows: Half life in mouse at 1 mg/kg, iv. It counts as ADME, organism-based. To be noted: in vivo.
A short description of data set [10]: Volume of distribution at steady state in mouse at 1 mg/kg, iv. Format: ADME, organism-based. To be noted: in vivo, read-out: Vdss.
The target of data set [11] is CYP3A4 (Homo sapiens, UniProt P08684). The data set is described as follows: Ratio of IC50 for time dependent inhibition of CYP3A4 (unknown origin) measured at 5 mins to IC50 for time dependent inhibition of CYP3A4 (unknown origin) measured at 30 mins. To be noted: read-out: Ratio IC50.
Sequence of CYP3A4 (P08684 whole entry): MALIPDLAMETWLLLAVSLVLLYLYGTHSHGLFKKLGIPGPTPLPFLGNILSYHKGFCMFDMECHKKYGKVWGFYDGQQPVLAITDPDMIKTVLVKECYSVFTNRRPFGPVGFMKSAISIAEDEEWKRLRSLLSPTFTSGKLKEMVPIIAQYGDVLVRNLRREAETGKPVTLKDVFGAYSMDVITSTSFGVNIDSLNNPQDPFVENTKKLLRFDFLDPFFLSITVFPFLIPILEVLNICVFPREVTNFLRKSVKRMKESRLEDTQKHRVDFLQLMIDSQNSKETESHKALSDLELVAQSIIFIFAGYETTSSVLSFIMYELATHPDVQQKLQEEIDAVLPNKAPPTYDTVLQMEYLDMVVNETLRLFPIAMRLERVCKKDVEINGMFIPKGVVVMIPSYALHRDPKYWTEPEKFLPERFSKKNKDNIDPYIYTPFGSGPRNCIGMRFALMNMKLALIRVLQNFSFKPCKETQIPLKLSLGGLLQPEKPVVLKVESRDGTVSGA
For data set [12], the species on record is Homo sapiens. As to the kind of experiment: Selectivity ratio of IC50 for MPO (unknown origin) chlorination activity incubated for 10 mins followed by NaCl addition by aminophenyl fluorescein assay to IC50 for C-terminal hexaHis-tagged TPO (unknown origin) expressed in Trichoplusia ni insect cells using 3-iodo tyrosine as substrate preincubated for 10 mins followed by substrate and H2O2 addition and further incubated for 15 mins.

Sequence of Cytochrome P450 3A4 (P08684 whole entry): as above

In the case of `Nc1cc(Cc2ccn(Cc3cccc(C4CCNCC4)c3)n2)c2nn[nH]c2n1`, the IC50 in [1] is 0.1 µM; in data set [2], 21 µM; in [3] it was 2.4 µM; in [5], 3.3 µM. Moreover, the fraction unbound in [4] was 0.2. Also, in [6], the permeability entry was “Impermeable”. Further, in data set [7], the clearance is 0.156 L/h/kg. Besides, the half-life is > 2 h in data set [8] and 1.2 h in data set [9]. The Vd in [10] worked out at 0.2 L/kg. Moreover, the IC50 shift in [11] was found to be 4.3.
In data set [1], `Nc1cc(C2CCNCC3(CCCC3)COc3cccc(c3)Cn3cc2cn3)c2nn[nH]c2n1` (stereo not drawn) gave an IC50 of 0.026 µM.
Turning to `Nc1cc(Cc2ccn(Cc3ccc4cnccc4c3)n2)c2nn[nH]c2n1`, the IC50 turned out to be 0.14 µM in data set [1], 1.8 µM in [2] and 0.21 µM in data set [5]. Moreover, the IC50 shift in [11] was 4.1.
In data set [1], `Nc1cc(C2CCNCCc3cccc(c3)Oc3cccc(c3)Cn3cc2cn3)c2nn[nH]c2n1` (stereo not drawn) gave an IC50 of 0.014 µM. In other words, the double-digit nanomolar range.
With `Nc1cc(Cc2ccn(Cc3ccccc3)n2)c2nn[nH]c2n1`, the IC50 in [1] was determined as 0.12 µM; in data set [2] it was 2.3 µM; in [5] it was 0.31 µM. In data set [11], the IC50 shift was 3.2.
The matching figures for `Nc1cc(Cc2ccn(Cc3cccc(Oc4ccccc4)c3)n2)c2nn[nH]c2n1`: 0.044 µM, 1.1 µM, 0.011 µM and 2.9.
`Nc1cc([C@H]2CCN[C@H]3C[C@H](Cc4ccccc4)[C@@H](C3)Oc3cccc(c3)Cn3cc2cn3)c2nn[nH]c2n1` showed an IC50 in [1] of 0.005 µM.
With `Nc1cc(Cc2ccn(Cc3cccc(Cc4ccccc4)c3)n2)c2nn[nH]c2n1`, the results for the half-maximal inhibitory concentration (IC50) in data set [1], in [2] and in data set [5] were 0.039 µM, 1.9 µM and 0.037 µM, respectively. Besides, in data set [11], the IC50 shift was 2.8.
As to `Nc1cc(C2CCNCc3cccc(c3)COc3cccc(c3)Cn3cc2cn3)c2nn[nH]c2n1` (stereo not drawn), the concentration for half-maximal inhibition (IC50) in [1] was 0.025 µM.
Regarding `Nc1cc(Cc2ccn(-c3ccccc3)n2)c2nn[nH]c2n1`, the values for the IC50 in data set [1], in [2] and in data set [5] were 0.055 µM, 0.64 µM and 0.21 µM, respectively. For the same compound, the IC50 shift in [11] was 2.7.
For `Nc1cc(Cc2ccn(-c3ccc(F)cc3)n2)c2nn[nH]c2n1`, the IC50 in [1] worked out at 0.053 µM; in data set [2], 0.7 µM; in data set [5], 0.11 µM. For the same compound, in data set [11], the IC50 shift was found to be 3.3.
In turn, `Nc1cc(C2CCNCCc3cccc(c3)-c3cccc(c3)Cn3cc2cn3)c2nn[nH]c2n1` (stereo not drawn) gave a concentration for half-maximal inhibition (IC50) in [1] of 0.021 µM.
For `Nc1cc(Cc2ccn(-c3ccccn3)n2)c2nn[nH]c2n1`, the IC50 in data set [1] came to 0.054 µM; in data set [2], 2 µM; in data set [5], 0.21 µM. The IC50 shift in [11] is 3.2.
In the case of `Nc1cc(C2CCNC34CCC(c5ccccc5)(CC3)[C@H](C4)Oc3cccc(c3)Cn3cc2cn3)c2nn[nH]c2n1` (stereo partly drawn), the half-maximal inhibitory concentration (IC50) in [1] worked out at 0.007 µM.
Take `Nc1cc(Cc2ccn(Cc3ccc4ccccc4c3)n2)c2nn[nH]c2n1`: the concentration for half-maximal inhibition (IC50) stood at 0.052 µM in data set [1], 1.1 µM in [2] and 0.04 µM in data set [5]. Moreover, the IC50 shift in data set [11] was 2.4.
The matching figures for `Nc1cc(Cc2ccn(Cc3cccc(-c4ccccc4)c3)n2)c2nn[nH]c2n1`: 0.055 µM, 1.1 µM, 0.017 µM and 2.8.
As for `Nc1cc(Cc2ccn(-c3cccc(-c4ccccc4)c3)n2)c2nn[nH]c2n1`, the IC50 in [1] was determined as 0.085 µM; in [2], 0.71 µM; in [5], 0.0071 µM. For the same compound, in data set [11], the IC50 shift amounted to 2.4.
The compound `Nc1cc(C2CCNCC(=O)N(CCc3ccccc3)Cc3cccc(c3)Cn3cc2cn3)c2nn[nH]c2n1` (stereo not drawn) displayed an IC50 in [1] of 0.029 µM. This counts as double-digit nanomolar.
For `Nc1cc(C2CCNCc3cccc(c3)OCc3cccc(c3)Cn3cc2cn3)c2nn[nH]c2n1` (stereo not drawn), it took 0.008 µM to reach half-maximal inhibition in [1] (IC50).
For the compound `Nc1cc(Cc2ccn(Cc3cccc(Oc4cccc5c4CNC5)c3)n2)c2nn[nH]c2n1`, the results for the 50% inhibitory concentration (IC50) in data set [1], in [2] and in data set [5] were 0.026 µM, 1.7 µM and 0.14 µM, respectively. For the same compound, the IC50 shift in data set [11] came out at 3.3.
`Nc1cc(Cc2ccn(Cc3cccc(O[C@H]4CCNC4)c3)n2)c2nn[nH]c2n1`: the IC50 in data set [1] worked out at 0.046 µM; in data set [2], 14 µM; in data set [5] it was 13 µM. Further, in [11], the IC50 shift was 1.6.
On to `Nc1cc(C2CCNCCc3cccc(c3)OCc3cccc(c3)Cn3cc2cn3)c2nn[nH]c2n1` (stereo not drawn), for which, in data set [1], the IC50 was determined as 0.017 µM.
Take `Nc1cc(Cc2ccn(Cc3ccc4c(c3)CCNC4)n2)c2nn[nH]c2n1`: the IC50 in data set [1] stood at 0.058 µM; in data set [2], 6.7 µM; in [3], 5 µM; in data set [5], 7 µM. In addition, in data set [12], the Ratio IC50 was determined as 120. Also, the fraction unbound in data set [4] was 0.5. For the same compound, in data set [8], the half-life is > 2 h. The IC50 shift in [11] was found to be 2.8.
In turn, `Nc1cc(C2CCNC3CCC(CC3)COc3cccc(c3)Cn3cc2cn3)c2nn[nH]c2n1` (stereo not drawn) showed an IC50 in data set [1] of 0.031 µM. That is a double-digit nanomolar value.
Consider `Nc1cc(C2CCNCc3cccc(c3)Oc3cccc(c3)Cn3cc2cn3)c2nn[nH]c2n1` (stereo not drawn), for which half-maximal inhibition in [1] (IC50) was put at 0.036 µM.

As usually defined, the IC50 is the concentration needed to halve the response being measured. For orientation: clearance means a measure of how efficiently the substance is removed, as volume per time. A high value points to a high capacity for elimination. What is called half-life is how long it takes for the measured level to halve.
